Assay results as given in patent publication US4395416A, “1-Spiro isobenzofuranic and 1-spiro isobenzothiophenic derivatives the process for preparing the same and their use in therapeutics” (Delalande S.A., priority 1981, dated 1983).

Experiments:
[1] = Acute toxicity (mice - LD 50); settings: mouse, in vivo, ip; for mortality: at 400 mg/kg, read-out: Acute toxicity, % at 400 (mg/kg/i.p.), printed in the LD 50 column
mice [2] = experiment: Protection against death induced by intravenous bicuculline (anti-convulsion activity); type: in vivo; settings: Mus musculus, ip, intravenous injection of 0.7 mg/kg of bicuculline, read-out: Efficient doses 50 - ED 50 protecting against death induced by Bicuculline
mice [3] = experiment: Phenylbenzoquinone test (analgesic activity); type: in vivo; settings: Mus musculus, ip, read-out: Phenylbenzoquinone test - ED 50
Source text: The analgesic activity was shown up on mice by interperitoneal injection of the compounds of formula (I) and their salts using the phenylbenzoquinone test according to the method described by E. SIEGMUND in Proced. Soc. Exp. Biol. and Med. 95, 729 (1957).

SMILES	LD50 [1] [mg/kg]	ED50 (mice [2]) [mg/kg]	ED50 (mice [3]) [mg/kg]	mortality [1] [%]
CN1CCCC12OC(c1ccccc1)c1ccccc12 (stereo not shown) [compound 44]	> 400	45	64	–
COc1cc2c(cc1OC)C1(CCCN1C)SC2=O (stereo not shown) [compound 10]	> 400	30	–	–
CN1CCCC12OCc1ccccc12 (stereo not shown) [compound 21]	275	15	100	–
COc1ccc2c(c1)C(=O)SC21CCCN1C (stereo not shown) [compound 9]	> 400	40	–	–
CN1CCCC12SC(=O)c1cc(Br)ccc12 (stereo not shown) [compound 41]	> 400	29.5	–	–
COc1ccc2c(c1)C1(CCCN1C)SC2=O (stereo not shown) [compound 8]	> 400	100	–	–
CN1CCCC12OCc1cc(Cl)ccc12 (stereo not shown) [compound 43]	> 400	27.5	30	–
CN1CCCC12SC(=O)c1cc3ccccc3cc12 (stereo not shown) [compound 42]	> 400	34	–	–
CCN1CCCC12SC(=O)c1cc(Cl)ccc12 (stereo not shown) [compound 7]	> 400	10	–	–
CN1CCCC12SC(=O)c1ccccc12 (stereo not shown) [Code number 1]	400	7	30	–
CN1CCCC12SC(=O)c1cc(F)ccc12 (stereo not shown) [compound 16]	> 400	25	–	–
O=C1OC2(CCCC2)c2ccccc21 [compound 23]	> 400	76	–	–
O=C1SC2(CCCN2c2ccc(Cl)cc2)c2ccccc21 (stereo not shown) [compound 39]	> 400	62	–	–
O=C1SC2(CCCN2c2ccc(Cl)cc2)c2ccc(Cl)cc21 (stereo not shown) [compound 40]	> 400	100	–	–
O=C1SC2(CCCN2c2ccccc2)c2ccccc21 (stereo not shown) [compound 37]	> 400	100	–	–
CN1CCCC12SCc1ccccc12 (stereo not shown) [compound 22]	290	34	–	–
CN1CCCC12SCc1cc(Cl)ccc12 (stereo not shown) [compound 45]	> 400	15	–	–
S=C1OC2(CCCC2)c2ccccc21 [compound 24]	> 400	63	46	–
CCCCN1CCCC12SC(=O)c1cc(Cl)ccc12 (stereo not shown) [compound 35]	–	26	–	60
O=C1SC2(CCCN2c2ccccc2)c2ccc(Cl)cc21 (stereo not shown) [compound 38]	> 400	56	–	–
CCCN1CCCC12SC(=O)c1cc(Cl)ccc12 (stereo not shown) [compound 34]	–	11	–	40
CN1CCCC12SC(=O)c1cc(Cl)ccc12 (stereo not shown) [compound 6]	> 400	8	–	–
CN1CCCC12SC(=O)c1ccc(Cl)cc12 (stereo not shown) [compound 5]	> 400	80	–	–
CCN1CCCC12SC(=O)c1ccccc12 (stereo not shown) [compound 3]	> 400	26	–	–
CN1CCCCC12SC(=O)c1ccccc12 (stereo not shown) [compound 2]	> 400	100	50	–
CC(C)CN1CCCC12SC(=O)c1cc(Cl)ccc12 (stereo not shown) [compound 36]	> 400	30	–	–
CCCN1CCCC12SC(=O)c1ccccc12 (stereo not shown) [Code number 4]	> 400	47	35	–
